The text below walks through data of patent US9399646B2 (Genentech, Inc., priority 2010, dated 2016).

Bounds are passed on as bounds.

The subject of one assay is MCF-7 cells. As to the kind of experiment: Breast cancer cell viability assay (CellTiter-Glo, 5 days). It counts as cell-based. The conditions noted are these: 5 days' compound exposure; for IC50: Homo sapiens, MCF7, 120 h. The protocol: MCF-7 cells were adjusted to a concentration of 20,000 cells per mL in RPMI containing 10% FBS and 20 mM HEPES. 16 microliters of the cell suspension (320 cells) was added to each well of a 384 well plate, and the cells were incubated overnight to allow the cells to adhere. The following day an eleven point, serial semilog dilution of each compound was added to the cells in 16 μL at a final concentration ranging from 0.3-0.000003 μM. After 5 days' compound exposure, 16 μL of CellTiter-GLo (Promega, Madison Wis.) was added to the cells the relative luminescence units (RLUs) of each well was determined CellTiter-Glo added to 32 μL of medium without cells was used to obtain a background value. The Percent viability of each sample was determined as follows: (RLU sample-RLU background/RLU untreated cells-RLU background)×100=% viability.

The target of the next assay is T1, ER-α in MCF-7 cells (Homo sapiens, UniProt P03372).
T1 sequence (P03372 1-595): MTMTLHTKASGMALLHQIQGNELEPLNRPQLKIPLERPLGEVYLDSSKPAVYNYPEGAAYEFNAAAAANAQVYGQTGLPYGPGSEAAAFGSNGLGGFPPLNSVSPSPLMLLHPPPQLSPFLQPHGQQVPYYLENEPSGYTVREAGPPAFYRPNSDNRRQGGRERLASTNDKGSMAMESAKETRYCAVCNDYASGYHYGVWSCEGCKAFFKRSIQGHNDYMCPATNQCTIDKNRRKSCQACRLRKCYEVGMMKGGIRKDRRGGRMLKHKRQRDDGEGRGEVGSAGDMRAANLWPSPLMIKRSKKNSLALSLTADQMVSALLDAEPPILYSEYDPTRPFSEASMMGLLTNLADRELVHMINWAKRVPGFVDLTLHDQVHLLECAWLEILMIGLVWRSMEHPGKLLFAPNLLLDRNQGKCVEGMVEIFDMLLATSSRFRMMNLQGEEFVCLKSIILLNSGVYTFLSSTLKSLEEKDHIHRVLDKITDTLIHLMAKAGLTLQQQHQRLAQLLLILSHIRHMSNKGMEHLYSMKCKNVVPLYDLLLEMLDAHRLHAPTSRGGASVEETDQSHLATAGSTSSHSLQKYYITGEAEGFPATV
As to the kind of experiment: Breast cancer cell ER-α in cell western assay (SP1). It counts as cell-based. More on the design: endogenous in cells; host or cells: MCF-7. The following applies: 4 or 24 hr post compound addition; for Emax: MCF7, SP1 antibody, read-out: ER-α In Cell Western Assay (SP1) Max Response; for DC50: SP1 antibody, read-out: ER-α In Cell Western Assay (SP1) IC50. The protocol: MCF-7 cells were adjusted to a concentration of 200,000 cells per mL in RPMI containing 10% charcoal-stripped FBS and 20 mM HEPES. 16 microliters of the cell suspension (3200 cells) was added to each well of a poly-D-lysine 384 well plate, and the cells were incubated overnight to allow the cells to adhere. The following day an eleven point, serial semilog dilution of each compound was added to the cells in 16 μL at a final concentration ranging from 0.3-0.000003 μM. At 4 or 24 hr post compound addition, the cells were fixed (10% formalin in PBS) for 20 minutes. Cells were permeablized in PBS 0.1% Triton and blocked with LICOR blocking buffer (50 μl/well, 90°). The wells were then incubated overnight at 4° C. with SP1 rabbit monoclonal Ab (Thermo Scientific) diluted 1:1000 in LICOR blocking buffer/0.1% Tween-20. Wells which were treated with blocking buffer with Tween but no antibody were used as a background control. Wells were washed with 0.1% Tween-20/PBS and then incubated in goat anti-rabbit IRDye™ 800CW (LICOR Inc.; 1:1000) and DRAQ5 DNA dye (1:2000 for 2 mM stock) diluted in LICOR blocking buffer containing 0.1% Tween-20 and 0.01% SDS for 60 minutes. Cells were washed (50 μl/well, 5′ each) in 0.1% Tween-20/PBS. Plates were scanned on a LICOR Odyssey infrared imaging system. Integrated intensities in the 800 nm channel and 700 nm channel were measured to determine levels of ER and DNA respectively. Percent ER levels were determined as follows: (Integrated intensity 800 nm sample/integrated intensity 700 nm sample)/(Integrated intensity 800 nm untreated cells/integrated intensity 700 nm untreated cells)×100=% ER levels.

The IC50 is the concentration that gives 50% inhibition. As to `CCCCCCOc1cccc(/C(CC)=C(\c2ccc(/C=C/C(=O)O)cc2)c2ccc3[nH]ncc3c2)c1` [Compound 350, (E)-3-(4-((E)-2-(3-(Hexyloxy)phenyl)-1-(1H-indazol-5-yl)but-1-en-1-yl)phenyl)acrylic acid], in the assay with MCF-7 cells, the “MCF7 Viability Assay Max Response” value is reported as “++ (++ = a single % value ≧ 40%)” and the half-maximal inhibitory concentration (IC50) is greater than 100 nM. For the same compound, at ER-α in MCF-7 cells, the Emax is no less than 40% and the DC50 was no more than 100 nM.
In the same order, the values of `CC/C(=C(/c1ccc(/C=C/C(=O)O)cc1)c1ccc2[nH]ncc2c1)c1cccc(Oc2ccc(S(C)(=O)=O)cn2)c1` [Compound 379, (E)-3-(4-((E)-1-(1H-Indazol-5-yl)-2-(3-((5-(methylsulfonyl)pyridin-2-yl)oxy)phenyl)but-1-en-1-yl)phenyl)acrylic acid] are “++ (++ = a single % value ≧ 40%)”, no more than 100 nM, no less than 40% and no more than 100 nM.
In the same order, the values of `CC/C(=C(/c1ccc(/C=C/C(=O)N(C)OC)cc1)c1ccc2[nH]ncc2c1)c1ccc(F)cc1Cl` [Compound 422, (E)-3-(4-((E)-2-(2-Chloro-4-fluorophenyl)-1-(1H-indazol-5-yl)but-1-en-1-yl)phenyl)-N-methoxy-N-methylacrylamide] are “++ (++ = a single % value ≧ 40%)”, no more than 100 nM, no less than 40% and no more than 100 nM.
For `CC/C(=C(/c1ccc(/C=C/C(=O)O)cc1)c1ccc2[nH]ncc2c1)c1cccc(Oc2nccs2)c1` [Compound 370, (E)-3-(4-((E)-1-(1H-Indazol-5-yl)-2-(3-(thiazol-2-yloxy)phenyl)but-1-en-1-yl)phenyl)acrylic acid], in that order: “++ (++ = a single % value ≧ 40%)”, no more than 100 nM, no less than 40% and no more than 100 nM.
As to `CC/C(=C(/c1ccc(/C=C/C(=O)O)cc1)c1cc(F)c2[nH]ccc2c1)c1ccccc1` [Compound 92, (E)-3-(4-((E)-1-(7-Fluoro-1H-indol-5-yl)-2-phenylbut-1-en-1-yl)phenyl)acrylic acid], in the assay on MCF-7 cells, the “MCF7 Viability Assay Max Response” value was “++ (++ = a single % value ≧ 40%)” and the half-inhibitory concentration (IC50) is no more than 100 nM. In addition, on ER-α in MCF-7 cells, the Emax is no less than 40% and the DC50 was no more than 100 nM.
On to `CC/C(=C(/c1ccc(/C=C/C(=O)O)cc1)c1ccc2[nH]ncc2c1)c1ccc(Oc2cccnc2)cc1` [Compound 292, (E)-3-(4-((E)-1-(1H-Indazol-5-yl)-2-(4-(pyridin-3-yloxy)phenyl)but-1-en-1-yl)phenyl)acrylic acid], for which, in the assay with MCF-7 cells, the “MCF7 Viability Assay Max Response” value is given as “++ (++ = a single % value ≧ 40%)” and the half-maximal inhibitory concentration (IC50) was no more than 100 nM. On ER-α in MCF-7 cells, the Emax was no less than 40% and the DC50 is no more than 100 nM.
On to `CC/C(=C(/c1ccc(/C=C/C(=O)O)cc1)c1ccc2[nH]ncc2c1)c1cccc(Oc2ccncn2)c1` [Compound 364, (E)-3-(4-((E)-1-(1H-Indazol-5-yl)-2-(3-(pyrimidin-4-yloxy)phenyl)but-1-en-1-yl)phenyl)acrylic acid], for which, in the assay on MCF-7 cells, the “MCF7 Viability Assay Max Response” value is on record as “++ (++ = a single % value ≧ 40%)” and the IC50 was no more than 100 nM. Besides, on ER-α in MCF-7 cells, the Emax was no less than 40% and the DC50 was no more than 100 nM.
In the case of `CC/C(=C(/c1ccc(/C=C/C(=O)O)cc1)c1ccc2[nH]ncc2c1)c1ccc(CC(=O)O)cc1` [Compound 328, (E)-3-(4-((E)-2-(4-(Carboxymethyl)phenyl)-1-(1H-indazol-5-yl)but-1-en-1-yl)phenyl)acrylic acid], in the assay with MCF-7 cells, the “MCF7 Viability Assay Max Response” value is on record as “+ (+ = a single % value < 40%)” and the half-maximal inhibitory concentration (IC50) is greater than 100 nM. On ER-α in MCF-7 cells, the Emax was less than 40% and the DC50 is greater than 100 nM.
For `Cc1cscc1/C(=C(\c1ccc(/C=C/c2nn[nH]n2)cc1)c1ccc2scnc2c1)C1CCC1` [Compound 448, 5-((E)-1-(4-((E)-2-(2H-Tetrazol-5-yl)vinyl)phenyl)-2-cyclobutyl-2-(4-methylthiophen-3-yl)vinyl)benzo[d]thiazole], in the assay with MCF-7 cells, the “MCF7 Viability Assay Max Response” value is given as “++ (++ = a single % value ≧ 40%)” and the concentration for half-maximal inhibition (IC50) was no more than 100 nM. Further, at ER-α in MCF-7 cells, the Emax was no less than 40% and the DC50 is no more than 100 nM.
With `CC/C(=C(/c1ccc2c(c1)CC(C(=O)O)C2)c1ccc2[nH]ncc2c1)c1ccccc1` (stereo not drawn) [Compound 192, (E)-5-(1-(1H-Indazol-5-yl)-2-phenylbut-1-en-1-yl)-2,3-dihydro-1H-indene-2-carboxylic acid], in the assay with MCF-7 cells, the “MCF7 Viability Assay Max Response” value is reported as “++ (++ = a single % value ≧ 40%)” and the IC50 is greater than 100 nM. In addition, at ER-α in MCF-7 cells, the Emax was no less than 40% and the DC50 was greater than 100 nM.
For `CC/C(=C(/c1ccc(/C=C/C(=O)O)cc1)c1ccc2[nH]ncc2c1)c1ccsc1C` [Compound 214, (E)-3-(4-((E)-1-(1H-Indazol-5-yl)-2-(2-methylthiophen-3-yl)but-1-en-1-yl)phenyl)acrylic acid], in the assay with MCF-7 cells, the “MCF7 Viability Assay Max Response” value was “++ (++ = a single % value ≧ 40%)” and the IC50 is no more than 100 nM. For the same compound, at ER-α in MCF-7 cells, the Emax is no less than 40% and the DC50 is no more than 100 nM.
Turning to `CC/C(=C(/c1ccc(/C=C/C(=O)NS(=O)(=O)c2cccnc2)cc1)c1ccc2[nH]ncc2c1)c1ccc(F)cc1Cl` [Compound 433, (E)-3-(4-((E)-2-(2-Chloro-4-fluorophenyl)-1-(1H-indazol-5-yl)but-1-en-1-yl)phenyl)-N-(pyridin-3-ylsulfonyl)acrylamide], in the assay with MCF-7 cells, the “MCF7 Viability Assay Max Response” value is “++ (++ = a single % value ≧ 40%)” and the IC50 is no more than 100 nM. For the same compound, at ER-α in MCF-7 cells, the Emax was no less than 40% and the DC50 is no more than 100 nM.
For `CC/C(=C(/c1ccc(/C=C/C(=O)O)cc1)c1ccc2ncsc2c1)c1ccccc1` [Compound 130, (E)-3-(4-((E)-1-(Benzo[d]thiazol-6-yl)-2-phenylbut-1-en-1-yl)phenyl)acrylic acid], in the assay with MCF-7 cells, the “MCF7 Viability Assay Max Response” value is reported as “++ (++ = a single % value ≧ 40%)” and the IC50 was greater than 100 nM. Besides, at ER-α in MCF-7 cells, the Emax is no less than 40% and the DC50 is greater than 100 nM.
As to `CC/C(=C(/c1ccc(/C=C/C(=O)O)cc1)c1ccc2[nH]ncc2n1)c1ccccc1` [Compound 120, (E)-3-(4-((E)-2-Phenyl-1-(1H-pyrazolo[4,3-b]pyridin-5-yl)but-1-en-1-yl)phenyl)acrylic acid], in the assay on MCF-7 cells, the “MCF7 Viability Assay Max Response” value is “++ (++ = a single % value ≧ 40%)” and the 50% inhibitory concentration (IC50) was no more than 100 nM. Moreover, on ER-α in MCF-7 cells, the Emax was no less than 40% and the DC50 is no more than 100 nM.
Turning to `CC/C(=C(/c1ccc(/C=C/C(=O)O)cc1)c1cnc2[nH]ccc2n1)c1ccccc1` [Compound 246, (E)-3-(4-((E)-2-Phenyl-1-(5H-pyrrolo[2,3-b]pyrazin-2-yl)but-1-en-1-yl)phenyl)acrylic acid], in the assay on MCF-7 cells, the “MCF7 Viability Assay Max Response” value is “+ (+ = a single % value < 40%)” and the IC50 was greater than 100 nM. For the same compound, on ER-α in MCF-7 cells, the Emax is no less than 40% and the DC50 is greater than 100 nM.
